± gives the expanded uncertainty stated by the source.

The record followed here is the NIST ThermoML archive (doi:10.1016/j.jct.2016.09.036).

The conditions of data set [1]: for mass density: 298.15 K, 101.33 kPa.
Data set [2] in a line: Molar enthalpy of transition or fusion. The following applies: Crystal 1; DSC.

`O=C(NC[C@H]1CN(c2ccc(N3CCOCC3=O)cc2)C(=O)O1)c1ccc(Cl)s1` [Rivaroxaban]: the mass density (in general, the mass of a sample divided by its volume) in data set [1] (Crystal 1, Pycnometric method) was found to be 1517.1 ± 2.1 kg/m3; in data set [1] (Crystal 1, X-ray diffraction), 1516.7 ± 7.4 kg/m3; in data set [1] (Metastable crystal, Pycnometric method), 1355.3 ± 2.1 kg/m3; in data set [1] (Metastable crystal, X-ray diffraction), 1362.9 ± 25 kg/m3. Moreover, in data set [1] (Crystal 1, DSC), the Triple point temperature is listed as 501.41 ± 7.8 K. Further, in data set [2], the “Molar enthalpy of transition or fusion” value was 11.2 ± 0.502 kcal/mol.
